Three compounds from US6653081B2, “Methods for monitoring antiretroviral therapy and guiding therapeutic decision in the treatment of HIV/AIDS” (ViroLogic, Inc., priority 2000, dated 2003) can be followed below.

The subject of one test is Y181C/M230L-RTV. Briefly: Phenotypic susceptibility assay, Y181C/M230L-RTV. The format is cell-based, HIV-1. To be noted: site-directed Y181C + M230L.
The test system of another test is RTV-010829. Briefly: Phenotypic susceptibility assay, RTV-010829. The format is cell-based, HIV. The note with it: patient 10829; for decrease in susceptibility: K103N, V245E, I270M. The source says: (§1) The resistance test vectors containing a functional luciferase gene cassette were constructed and host cells were transfected with the resistance test vector DNA. The resistant test vectors contained patient-derived reverse transcriptase and protease sequences that were either susceptible or resistant to the antiretroviral agents, such as nucleoside reverse transcriptase inhibitors, (NRTIs) non-nucleoside reverse transcriptase inhibitors […] protease inhibitors. The resistance test vector viral particles produced by transfecting the resistance test vector DNA into host cells, either in the presence or absence of PRIs, were used to infect target host cells grown either in the absence of NRTIs or NNRTIs, or in the presence of increasing concentrations of the drug. The amount of luciferase activity produced in infected target host cells in the presence of varying concentrations of drug was compared to the amount of luciferase produced in infected target host cells in the absence of drug. “Drug resistance” was measured as the amount of drug required to inhibit by 50% the luciferase activity detected in the absence of drug (inhibitory concentration 50%, IC50). The IC50 values were determined by plotting percent drug inhibition vs. log10 drug concentration. Stimulation of viral replication was measured as the percent increase in luciferase activity detected when infection occurs in the presence of drug as compared to in the absence of drug.
(§2) Host cells were seeded in 10-cm-diameter dishes and were transfected several days after plating with resistance test vector plasmid DNA and the envelope expression vector. Transfections were performed using a calcium-phosphate precipitation procedure. The cell culture media containing the DNA precipitate was replaced with fresh medium, from one to 24 hours, after transfection. Cell culture media containing resistance test vector viral particles was harvested one to four days after transfection and was passed through a […] filter before being used to infect target host cells, or being stored at −80° C. HIV capsid protein (p24) levels in the harvested cell culture media were determined by an EIA method as described by the manufacturer (SAIC; Frederick, Md.). Before infection, target cells (293 and 293/T) were plated in cell culture media. Control infections were performed using cell culture media from mock transfections (no DNA) or transfections containing the resistance test vector plasmid DNA without the envelope expression plasmid. One to three or more days after infection, the media was removed and cell lysis buffer (Promega) was added to each well. Cell lysates were assayed for luciferase activity (FIG. 3). The inhibitory effect of the drug was determined using the following equation:
(§3) % luciferase inhibition=1−(RLUluc[drug]÷RLUluc)×100
(§4) where RLUluc [drug] is the Relative Light Unit of luciferase activity in infected cells in the presence of drug, and RLUluc is the Relative Light Unit of luciferase activity in infected cells in the absence of drug. IC50values were obtained from the sigmoidal curves that were generated from the data by plotting the percent inhibition of luciferase activity vs. the log10 drug concentration. The percent luciferase stimulation is the negative of the % inhibition calculated using the formula above.
(§5) A resistance test vector was constructed as described in Example 1 from a virus sample obtained from patient 10829. The prior and current treatment regimens are unknown. Isolation of viral RNA and RT/PCR was used to generate a patient derived segment (PDS) that comprised viral sequences coding for all of PR and aa 1-313 of RT. The PDS were inserted into an indicator gene viral vector to generate a resistance test vector designated RTV-010829. RTV-010829 was then tested in a phenotypic assay to determine accurately and quantitatively the level of susceptibility to a panel of anti-retroviral drugs. […]

A further test has as its system RTV-013415. Briefly: Phenotypic susceptibility assay, RTV-013415. The format is cell-based, HIV. The note with it: patient 013415; for decrease in susceptibility: V245M with multiple other mutations.
From the text: as §1, §2, §3, §4
as §5, with “013415.” for “10829.”, “RTV-013415. RTV-013415” for “RTV-010829. RTV-010829”

A further test has as its system RTV-011073. The experiment in a line: Phenotypic susceptibility assay, RTV-011073. The format is cell-based, HIV. To be noted: patient 011073; for decrease in susceptibility: V241S, K103N, I135T.
From the text: as §1, §2, §3, §4
as §5, with “011073.” for “10829.”, “was” for “were”, “RTV-011073. RTV-011073” for “RTV-010829. RTV-010829”

The test system of another test is RTV-I135T/V245T. The experiment in a line: Phenotypic susceptibility assay, RTV-I135T/V245T. The note with it: site-directed I135T + V245T. It counts as cell-based, HIV-1.
From the text: as §1, §2, §3, §4
A resistance test vector containing two mutations, I135T and V245T (RTV-I135T/V245T) was constructed and tested in the phenotypic assay described earlier. The results were compared to those determined using a genetically defined resistance test vector that was wild type at positions 135 and 245. We determined the pattern of phenotypic susceptibility to the NNRTIs, delavirdine, nevirapine and efavirenz, in RTV-I135T/V245T.

Another test has as its system RTV-K103N/I135T. Briefly: Phenotypic susceptibility assay, RTV-K103N/I135T. The note with it: site-directed K103N + I135T. The format is cell-based, HIV-1.
From the text: as §1, §2, §3, §4
A resistance test vector containing two mutations, K103N and I135T (RTV-K103N/I135T) was constructed and tested in the phenotypic assay described earlier. The results were compared to those determined using a genetically defined resistance test vector that was wild type at position 103 and 135. We determined the pattern of phenotypic susceptibility to the NNRTIs, delavirdine, nevirapine and efavirenz, in RTV-K103N/I135T.

In test [1] the test system is RTV-1033-3/283L/284R/286T/293V/297E. The experiment in a line: Phenotypic susceptibility assay, RTV-1033-3/283L/284R/286T/293V/297E. The format is cell-based, HIV. To be noted: RTV-1033-3 with L283I, R284K, T286A, V293I and E297K reverted.
From the text: as §1, §2, §3, §4
A resistance test vector containing all of the mutations present in RTV-1033-3 except for L283I, R284K, T286A, V293I and E297K (RTV-1033-3/283L/284R/286T/293V/297E) was constructed and tested using the phenotypic assay described earlier. The results were compared to those determined using the parent RTV-1033-3. We determined the pattern of phenotypic susceptibility to the NNRTIs, delavirdine, nevirapine and efavirenz, in the reverted vector, RTV-1033-3/283L/284R/286T/293V/297E.

Each structure is given as a SMILES string. Where “and” joins values, the source holds several entries; their conditions need not be identical. Identical values can stand only once.

Turning to `CC(C)Nc1cccnc1N1CCN(C(=O)c2cc3cc(NS(C)(=O)=O)ccc3[nH]2)CC1` [delavirdine], the “drug-dependent stimulation of viral replication” value (shortened to “drug-dependent stimulation”) is “no drug-dependent stimulation” with Y181C/M230L-RTV; ~100% with RTV-010829; ~30% in the test on RTV-013415; ~90% in the test with RTV-011073; ~10% in the test with RTV-I135T/V245T; “no drug-dependent stimulation” with RTV-K103N/I135T. Also, the “drug-dependent stimulation” value in test [1] is listed as “no drug-dependent stimulation”. Also, in the test on Y181C/M230L-RTV, the “reduction in susceptibility compared to wild type control RTV” value (“reduction in susceptibility” below) was > 250 fold. Also, the decrease in susceptibility in the test on RTV-010829, in the test on RTV-013415 and in the test with RTV-011073 was > 250 fold throughout. In addition, the figures for the “reductions in susceptibility compared to wild type control RTV” value (shortened to “reductions in susceptibility”) (in the test on RTV-I135T/V245T; with RTV-K103N/I135T; in test [1]) were 2.5 fold, 121 fold and 16 fold, respectively.

Turning to `O=C1Nc2ccc(Cl)cc2[C@@](C#CC2CC2)(C(F)(F)F)O1` [efavirenz], the “drug-dependent stimulation” value in the test on Y181C/M230L-RTV was “no drug-dependent stimulation”; in the test on RTV-010829 it was ~80%; with RTV-013415, ~20%; with RTV-011073 it was ~80%; in the test with RTV-I135T/V245T it was “no drug-dependent stimulation”; with RTV-K103N/I135T, “no drug-dependent stimulation”. The “drug-dependent stimulation” value in test [1] was “no drug-dependent stimulation”. Moreover, the “reduction in susceptibility” value in the test on Y181C/M230L-RTV is listed as 25 fold. Also, the decrease in susceptibility in the test with RTV-010829, with RTV-013415 and in the test with RTV-011073 was > 450 fold in each case. For the same compound, the “reductions in susceptibility” value in the test with RTV-I135T/V245T amounted to 2.4 fold; with RTV-K103N/I135T it was 80 fold; in test [1], 5 fold.

With `Cc1ccnc2c1NC(=O)c1cccnc1N2C1CC1` [nevirapine], the “drug-dependent stimulation” value with Y181C/M230L-RTV is given as “no drug-dependent stimulation”; with RTV-010829, ~100%; in the test with RTV-013415, ~20%; in the test on RTV-011073, ~70%; with RTV-I135T/V245T it was ~10%; with RTV-K103N/I135T, “no drug-dependent stimulation”. Moreover, the “drug-dependent stimulation” value in test [1] is listed as “no drug-dependent stimulation”. Further, the “reduction in susceptibility” value with Y181C/M230L-RTV was > 600 fold and > 800 fold. Moreover, the decrease in susceptibility in the test on RTV-010829, in the test with RTV-013415 and in the test on RTV-011073 was > 600 fold throughout. Besides, the “reductions in susceptibility” value with RTV-I135T/V245T came out at 4 fold; with RTV-K103N/I135T, 171 fold; in test [1], 144 fold.
